Assay results as given in ChEMBL document CHEMBL3885861, “Open TG-GATES”.

Species on record: Rattus norvegicus
Assay: Open TG-GATES - Regimen: Single
Assay type: toxicity, organism-based, Sprague-Dawley
Design: regimen Single, gender Male, age 6 weeks
Conditions: in vivo, po, route gavage; for Bas / Eos / Fbg / Hb / Ht / Lym / MCH / MCHC / MCV / Mono / Neu / PT / Plat / RBC / Ret / WBC: tissue Blood; for KIDNEY_L / KIDNEY_R / KIDNEY_TOTAL: tissue Kidney; for LIVER: tissue Liver; for ALP / ALT / AST / BUN / CRE / Ca / Cl / DBIL / GLC / IP / K / LDH / Na / PL / RALB / TBIL / TC / TG / TP / gamma-GTP: tissue Plasma
[1] = 150 mg/kg, 3 h, dose level Middle
[2] = 150 mg/kg, 6 h, dose level Middle
[3] = 150 mg/kg, 9 h, dose level Middle
[4] = 150 mg/kg, 24 h, dose level Middle

CN(C)CCCN1c2ccccc2Sc2ccc(Cl)cc21 [CHLORPROMAZINE]
TERMINAL_BW (45 mg/kg, 9 h, dose level Low): 211.4 g
Bas (45 mg/kg, 9 h, dose level Low): 0%
Eos (45 mg/kg, 9 h, dose level Low): 1%
Fbg (45 mg/kg, 9 h, dose level Low): 219.2 mg/dL
Hb (45 mg/kg, 9 h, dose level Low): 12.8 g/dL
Ht (45 mg/kg, 9 h, dose level Low): 37.4%
Lym (45 mg/kg, 9 h, dose level Low): 76.6%
MCH (45 mg/kg, 9 h, dose level Low): 21.4 pg
MCHC (45 mg/kg, 9 h, dose level Low): 34.1%
MCV (45 mg/kg, 9 h, dose level Low): 62.7 fL
Mono (45 mg/kg, 9 h, dose level Low): 2.8%
Neu (45 mg/kg, 9 h, dose level Low): 18.8%
PT (45 mg/kg, 9 h, dose level Low): 12.3 s
Plat (45 mg/kg, 9 h, dose level Low): 128.5 x10_4/uL
RBC (45 mg/kg, 9 h, dose level Low): 596.6 x10_4/ul
Ret (45 mg/kg, 9 h, dose level Low): 8%
WBC (45 mg/kg, 9 h, dose level Low): 53.8 x10_2/uL
KIDNEY_L (45 mg/kg, 9 h, dose level Low): 0.9 g
KIDNEY_R (45 mg/kg, 9 h, dose level Low): 0.9 g
KIDNEY_TOTAL (45 mg/kg, 9 h, dose level Low): 1.8 g
LIVER (45 mg/kg, 9 h, dose level Low): 9.1 g
ALP (45 mg/kg, 9 h, dose level Low): 807.4 IU/L
ALT (45 mg/kg, 9 h, dose level Low): 28.2 IU/L
AST (45 mg/kg, 9 h, dose level Low): 63.2 IU/L
BUN (45 mg/kg, 9 h, dose level Low): 9.4 mg/dL
CRE (45 mg/kg, 9 h, dose level Low): 0.4 mg/dL
Ca (45 mg/kg, 9 h, dose level Low): 10.4 mg/dL
Cl (45 mg/kg, 9 h, dose level Low): 106.4 meq/L
DBIL (45 mg/kg, 9 h, dose level Low): 0.07 mg/dL
GLC (45 mg/kg, 9 h, dose level Low): 263.8 mg/dL
IP (45 mg/kg, 9 h, dose level Low): 9.6 mg/dL
K (45 mg/kg, 9 h, dose level Low): 3.6 meq/L
LDH (45 mg/kg, 9 h, dose level Low): 215.6 IU/L
Na (45 mg/kg, 9 h, dose level Low): 143.4 meq/L
PL (45 mg/kg, 9 h, dose level Low): 147.2 mg/dL
RALB (45 mg/kg, 9 h, dose level Low): 3.4 g/dL
TBIL (45 mg/kg, 9 h, dose level Low): 0.1 mg/dL
TC (45 mg/kg, 9 h, dose level Low): 84.4 mg/dL
TG (45 mg/kg, 9 h, dose level Low): 14 mg/dL
TP (45 mg/kg, 9 h, dose level Low): 5.6 g/dL
gamma-GTP (45 mg/kg, 9 h, dose level Low): 0.8 IU/L
TERMINAL_BW (45 mg/kg, 24 h, dose level Low): 211.2 g
Bas (45 mg/kg, 24 h, dose level Low): 1%
Eos (45 mg/kg, 24 h, dose level Low): 0.8%
Fbg (45 mg/kg, 24 h, dose level Low): 213.6 mg/dL
Hb (45 mg/kg, 24 h, dose level Low): 14.3 g/dL
Ht (45 mg/kg, 24 h, dose level Low): 42%
Lym (45 mg/kg, 24 h, dose level Low): 77.8%
MCH (45 mg/kg, 24 h, dose level Low): 21.7 pg
MCHC (45 mg/kg, 24 h, dose level Low): 33.9%
MCV (45 mg/kg, 24 h, dose level Low): 64.1 fL
Mono (45 mg/kg, 24 h, dose level Low): 2.4%
Neu (45 mg/kg, 24 h, dose level Low): 17.6%
PT (45 mg/kg, 24 h, dose level Low): 11.7 s
Plat (45 mg/kg, 24 h, dose level Low): 137.7 x10_4/uL
RBC (45 mg/kg, 24 h, dose level Low): 656.8 x10_4/ul
Ret (45 mg/kg, 24 h, dose level Low): 7.5%
WBC (45 mg/kg, 24 h, dose level Low): 87 x10_2/uL
KIDNEY_L (45 mg/kg, 24 h, dose level Low): 1 g
KIDNEY_R (45 mg/kg, 24 h, dose level Low): 1 g
KIDNEY_TOTAL (45 mg/kg, 24 h, dose level Low): 2 g
LIVER (45 mg/kg, 24 h, dose level Low): 9.2 g
ALP (45 mg/kg, 24 h, dose level Low): 861 IU/L
ALT (45 mg/kg, 24 h, dose level Low): 35.8 IU/L
AST (45 mg/kg, 24 h, dose level Low): 84 IU/L
BUN (45 mg/kg, 24 h, dose level Low): 21.8 mg/dL
CRE (45 mg/kg, 24 h, dose level Low): 0.5 mg/dL
Ca (45 mg/kg, 24 h, dose level Low): 10.7 mg/dL
Cl (45 mg/kg, 24 h, dose level Low): 104.6 meq/L
DBIL (45 mg/kg, 24 h, dose level Low): 0.062 mg/dL
GLC (45 mg/kg, 24 h, dose level Low): 217.8 mg/dL
IP (45 mg/kg, 24 h, dose level Low): 8.9 mg/dL
K (45 mg/kg, 24 h, dose level Low): 3.8 meq/L
LDH (45 mg/kg, 24 h, dose level Low): 239.4 IU/L
Na (45 mg/kg, 24 h, dose level Low): 144 meq/L
PL (45 mg/kg, 24 h, dose level Low): 132.2 mg/dL
RALB (45 mg/kg, 24 h, dose level Low): 3.7 g/dL
TBIL (45 mg/kg, 24 h, dose level Low): 0.1 mg/dL
TC (45 mg/kg, 24 h, dose level Low): 70.8 mg/dL
TG (45 mg/kg, 24 h, dose level Low): 76.4 mg/dL
TP (45 mg/kg, 24 h, dose level Low): 5.9 g/dL
gamma-GTP (45 mg/kg, 24 h, dose level Low): 1 IU/L
TERMINAL_BW [1]: 221.2 g
Bas [1]: 0%
Eos [1]: 0.8%
Fbg [1]: 211.2 mg/dL
Hb [1]: 12.6 g/dL
Ht [1]: 37.6%
Lym [1]: 73.4%
MCH [1]: 21.3 pg
MCHC [1]: 33.5%
MCV [1]: 63.4 fL
Mono [1]: 2.6%
Neu [1]: 22.2%
PT [1]: 12.4 s
Plat [1]: 120.3 x10_4/uL
RBC [1]: 593.4 x10_4/ul
Ret [1]: 8.4%
WBC [1]: 49.8 x10_2/uL
KIDNEY_L [1]: 0.9 g
KIDNEY_R [1]: 0.9 g
KIDNEY_TOTAL [1]: 1.8 g
LIVER [1]: 9.9 g
ALP [1]: 942 IU/L
ALT [1]: 33.4 IU/L
AST [1]: 71.4 IU/L
BUN [1]: 10.8 mg/dL
CRE [1]: 0.4 mg/dL
Ca [1]: 10.9 mg/dL
Cl [1]: 105.6 meq/L
DBIL [1]: 0.062 mg/dL
GLC [1]: 229.6 mg/dL
IP [1]: 10.3 mg/dL
K [1]: 3.8 meq/L
LDH [1]: 212.2 IU/L
Na [1]: 145.2 meq/L
PL [1]: 132.2 mg/dL
RALB [1]: 3.4 g/dL
TBIL [1]: 0.1 mg/dL
TC [1]: 69.8 mg/dL
TG [1]: 61.8 mg/dL
TP [1]: 5.4 g/dL
gamma-GTP [1]: 1 IU/L
TERMINAL_BW [2]: 215.2 g
Bas [2]: 0%
Eos [2]: 1%
Fbg [2]: 209.8 mg/dL
Hb [2]: 12.4 g/dL
Ht [2]: 36.4%
Lym [2]: 73%
MCH [2]: 21 pg
MCHC [2]: 34.2%
MCV [2]: 61.6 fL
Mono [2]: 2.4%
Neu [2]: 23%
PT [2]: 12.7 s
Plat [2]: 122.6 x10_4/uL
RBC [2]: 591.2 x10_4/ul
Ret [2]: 7.9%
WBC [2]: 46.9 x10_2/uL
KIDNEY_L [2]: 0.9 g
KIDNEY_R [2]: 1 g
KIDNEY_TOTAL [2]: 1.9 g
LIVER [2]: 9.4 g
ALP [2]: 685.2 IU/L
ALT [2]: 29.4 IU/L
AST [2]: 67.2 IU/L
BUN [2]: 9.4 mg/dL
CRE [2]: 0.4 mg/dL
Ca [2]: 10.4 mg/dL
Cl [2]: 105.6 meq/L
DBIL [2]: 0.064 mg/dL
GLC [2]: 246.2 mg/dL
IP [2]: 10.5 mg/dL
K [2]: 3.5 meq/L
LDH [2]: 214.6 IU/L
Na [2]: 144.4 meq/L
PL [2]: 127.6 mg/dL
RALB [2]: 3.3 g/dL
TBIL [2]: 0.1 mg/dL
TC [2]: 72.6 mg/dL
TG [2]: 26.2 mg/dL
TP [2]: 5.3 g/dL
gamma-GTP [2]: 0.8 IU/L
TERMINAL_BW [3]: 211.5 g
Bas [3]: 0%
Eos [3]: 1%
Fbg [3]: 222.4 mg/dL
Hb [3]: 12.4 g/dL
Ht [3]: 36.9%
Lym [3]: 71.8%
MCH [3]: 21.1 pg
MCHC [3]: 33.7%
MCV [3]: 62.7 fL
Mono [3]: 4%
Neu [3]: 20%
PT [3]: 12.7 s
Plat [3]: 126.5 x10_4/uL
RBC [3]: 590.6 x10_4/ul
Ret [3]: 8.3%
WBC [3]: 40.7 x10_2/uL
KIDNEY_L [3]: 0.9 g
KIDNEY_R [3]: 0.9 g
KIDNEY_TOTAL [3]: 1.8 g
LIVER [3]: 8.8 g
ALP [3]: 813.8 IU/L
ALT [3]: 29 IU/L
AST [3]: 64.2 IU/L
BUN [3]: 10.6 mg/dL
CRE [3]: 0.4 mg/dL
Ca [3]: 10.6 mg/dL
Cl [3]: 105.6 meq/L
DBIL [3]: 0.07 mg/dL
GLC [3]: 237.8 mg/dL
IP [3]: 10.8 mg/dL
K [3]: 3.6 meq/L
LDH [3]: 171.4 IU/L
Na [3]: 143.2 meq/L
PL [3]: 136.6 mg/dL
RALB [3]: 3.4 g/dL
TBIL [3]: 0.1 mg/dL
TC [3]: 81 mg/dL
TG [3]: 17.6 mg/dL
TP [3]: 5.4 g/dL
gamma-GTP [3]: 1 IU/L
TERMINAL_BW [4]: 194.9 g
Bas [4]: 0.4%
Eos [4]: 1%
Fbg [4]: 215.4 mg/dL
Hb [4]: 13.6 g/dL
Ht [4]: 39.9%
Lym [4]: 69.2%
MCH [4]: 21.3 pg
MCHC [4]: 34.2%
MCV [4]: 62.3 fL
Mono [4]: 5.2%
Neu [4]: 23.2%
PT [4]: 11.4 s
Plat [4]: 152.2 x10_4/uL
RBC [4]: 640.4 x10_4/ul
Ret [4]: 7.1%
WBC [4]: 43.7 x10_2/uL
KIDNEY_L [4]: 0.9 g
KIDNEY_R [4]: 0.9 g
KIDNEY_TOTAL [4]: 1.8 g
LIVER [4]: 7.8 g
ALP [4]: 873.2 IU/L
ALT [4]: 24.6 IU/L
AST [4]: 82 IU/L
BUN [4]: 14.2 mg/dL
CRE [4]: 0.4 mg/dL
Ca [4]: 10.5 mg/dL
Cl [4]: 104.4 meq/L
DBIL [4]: 0.072 mg/dL
GLC [4]: 239 mg/dL
IP [4]: 10.6 mg/dL
K [4]: 3.7 meq/L
LDH [4]: 257.2 IU/L
Na [4]: 144.8 meq/L
PL [4]: 138 mg/dL
RALB [4]: 3.6 g/dL
TBIL [4]: 0.1 mg/dL
TC [4]: 77.6 mg/dL
TG [4]: 21.2 mg/dL
TP [4]: 5.8 g/dL
gamma-GTP [4]: 0.8 IU/L
